In patent US9145415B2, “Nitrogen-containing heterocyclic compound or salt thereof” (FUJIFILM Corporation, priority 2012, dated 2015):
Where two headings read alike, the source gives them in different places.

Experiments:
[1] = test system: MV4-11 cells; assay: Leukemia cell proliferation inhibition test (ATPlite), MV4-11; format: cell-based; settings: read-out: MV4-11 cell proliferation inhibition effect
In short: (§1)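 Molm-13 or MV4-11 cells in RPMI with 10% FBS and pen/strep, seeded at 10,000 cells per well, were exposed to serially diluted compound for 72 hours at 37° C, 5% CO2. Total cellular ATP was read by luciferase luminescence. GI50 came from sigmoid fits against the 0.1% DMSO control, in duplicate.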

[2] = test system: Molm-13 cells; assay: Leukemia cell proliferation inhibition test (ATPlite), Molm-13; format: cell-based; settings: read-out: MOLM13 cell proliferation inhibition effect
In short: as §1

[3] = biological target: T1, human FLT3 protein (FLT3 (WT)) (Homo sapiens, UniProt P36888); assay: FLT3 inhibition test (FLT3 enzyme inhibition, time-resolved fluorescence of substrate peptide phosphorylation); format: biochemical; settings: read-out: FLT3 (WT) enzyme inhibition activity
T1 construct: human FLT3 protein (intracellular region, 564 to 993 aa); GST; purchased Carna Biosciences; host or cells: baculovirus expression system
T1 sequence (P36888 564-993): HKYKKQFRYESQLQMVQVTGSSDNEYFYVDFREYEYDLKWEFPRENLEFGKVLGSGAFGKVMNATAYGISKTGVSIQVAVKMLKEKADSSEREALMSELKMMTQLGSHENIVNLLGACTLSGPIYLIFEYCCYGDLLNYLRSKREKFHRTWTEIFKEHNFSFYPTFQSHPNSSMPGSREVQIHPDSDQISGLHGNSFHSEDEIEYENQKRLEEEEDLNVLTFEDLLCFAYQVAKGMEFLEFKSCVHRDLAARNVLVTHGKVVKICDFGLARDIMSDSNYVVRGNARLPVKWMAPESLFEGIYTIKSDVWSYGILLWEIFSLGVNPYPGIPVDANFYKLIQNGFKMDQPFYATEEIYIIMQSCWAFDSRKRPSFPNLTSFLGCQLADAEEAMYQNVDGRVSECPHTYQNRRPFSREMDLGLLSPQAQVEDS
In short: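 Substrate peptide phosphorylation detected by time-resolved fluorescence after a 30 min kinase reaction at 25° C with 50 μM ATP (final). Beforehand, compound and FLT3 (WT, 1.2 μg) stood 15 min at 25° C in HEPES buffer pH 7.5 containing MgCl2, NaCl, BSA and DTT.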

[4] = Homo sapiens, MV4-11, 72 h, MV4-11, 72 hours culture, ATPlite, GI50 per method
[5] = Homo sapiens, MOLM-13, 72 h, Molm-13, 72 hours culture, ATPlite, GI50 per method
[6] = GST-fused human FLT3 (564 to 993 aa), ATP 50 μM
[7] = Homo sapiens, MV4-11, MV4-11 cell
[8] = Homo sapiens, MOLM-13, MOLM13 cell

IC50 [1, 4] | IC50 [2, 5] | IC50 [3, 6] | IC50 ([1]; MV4-11, 72 hours culture, ATPlite, GI50 per method) | IC50 ([2]; Molm-13, 72 hours culture, ATPlite, GI50 per method) | IC50 [1, 7] | IC50 [2, 8] | IC50 ([3]; FLT3 (WT)) | Structure (SMILES)
< 10 nM | < 10 nM | < 10 nM |  |  |  |  |  | CNc1nc(Nc2cccc(F)c2)ncc1C#C[C@@H]1CCC[C@H](NC(=O)[C@H](C)N(C)C(=O)/C=C/CN(C)C)C1 [Compound 15-6]
10 to 100 nM | 10 to 100 nM | < 10 nM |  |  |  |  |  | CCCNc1nc(Nc2cccc(F)c2)ncc1C#CCCCNC(=O)[C@H](C(C)C)N(C)C(=O)/C=C/CN(C)C [Compound 7-10]
10 to 100 nM | 10 to 100 nM | < 10 nM |  |  |  |  |  | C=CC(=O)N(C)[C@@H](C)C(=O)NCCCC#Cc1cnc(Nc2cccc(C#N)c2)nc1N1CCOCC1 [Compound 9-4]
< 10 nM | < 10 nM | < 10 nM |  |  |  |  |  | COc1ccc(Nc2nc(Nc3ccc(F)cc3)ncc2C#CCCCNC(=O)[C@H](C)N(C)C(=O)/C=C/CN(C)C)cn1 [Compound 10-40]
 |  | < 10 nM | < 10 nM | 10 to 100 nM |  |  |  | CCCNc1nc(Nc2ccc(C(N)=O)cc2)ncc1C#Cc1cccc(NC(=O)[C@H](C)N(C)C(=O)/C=C/CN(C)C)c1 [Compound 8-14]
< 10 nM | < 10 nM | < 10 nM |  |  |  |  |  | CCCNc1nc(Nc2cccc(F)c2)ncc1C#CCCCNC(=O)[C@@H]1C[C@@H](OC)CN1C(=O)/C=C/CN(C)C [Compound 7-58]
< 10 nM | < 10 nM | < 10 nM |  |  |  |  |  | CNc1nc(Nc2ccc(F)nc2)ncc1C#C[C@@H]1CCC[C@H](NC(=O)[C@H](C)N(C)C(=O)/C=C/CN(C)C)C1 [Compound 15-3]
10 to 100 nM | 100 to 1000 nM | < 10 nM |  |  |  |  |  | CCCNc1nc(Nc2ccccc2F)ncc1C#CCCCNC(=O)[C@H](C)N(C)C(=O)/C=C/CN(C)C [Compound 12-10]
< 10 nM | 10 to 100 nM | < 10 nM |  |  |  |  |  | CCCNc1nc(Nc2cccc(F)c2)ncc1C#CCCCNC(=O)[C@@H]1CCCCN1C(=O)/C=C/CN(C)C [Compound 7-46]
< 10 nM | < 10 nM | < 10 nM |  |  |  |  |  | CN(C)C/C=C/C(=O)N1CCC[C@H]1C(=O)NCCCC#Cc1cnc(Nc2ccc3cn[nH]c3c2)nc1NC1CC1 [Compound 10-75]
 |  |  |  |  | 10 to 100 nM | 10 to 100 nM | < 10 nM | CNc1ncc(C#C[C@@H]2CCC[C@H](NC(=O)[C@H](C)N(C)C(=O)/C=C/CN(C)C)C2)c(NCc2cccc(F)c2)n1 [Compound 21-44]
100 to 1000 nM | 100 to 1000 nM | < 10 nM |  |  |  |  |  | CCCNc1nc(Nc2ccc(C#N)cc2)ncc1C#CCNC(=O)CCCNC(=O)/C=C/CN(C)C [Compound 7-91]
< 10 nM | < 10 nM | < 10 nM |  |  |  |  |  | CNc1ncc(C#C[C@H]2C[C@@H](NC(=O)[C@H](C)N(C)C(=O)/C=C/CN(C)C)C2)c(Nc2ccc(OC)nc2)n1 [Compound 13-22]
< 10 nM | < 10 nM | < 10 nM |  |  |  |  |  | COCCCNc1nc(Nc2ccc3[nH]ncc3c2)ncc1C#CCCCNC(=O)[C@@H]1CCCN1C(=O)/C=C/CN(C)C [Compound 10-68, (S,E)-N-(5-(2-((1H-Indazol-5-yl)amino)-4-((3-methoxypropyl)amino)pyrimidin-5-yl)-4-pentyn-1-yl)-1-(4-(dimethylamino)-2-butenoyl)pyrrolidine-2-carboxamide]
100 to 1000 nM | > 1000 nM | < 10 nM |  |  |  |  |  | CCCNc1nc(Nc2ccc(C(N)=O)cc2)ncc1C(=O)Nc1ccc(NC(=O)/C=C/CN(C)C)cc1 [Compound 3-6]
< 10 nM | < 10 nM | < 10 nM |  |  |  |  |  | CCCNc1nc(Nc2ccc(F)cc2)ncc1C#CCCCNC(=O)[C@H](C)N(C)C(=O)/C=C/CN(C)C [Compound 12-3]
< 10 nM | < 10 nM | < 10 nM |  |  |  |  |  | CNc1nc(Nc2cccc(F)c2)ncc1C#CCCCNC(=O)[C@@H]1C[C@H](OC)CN1C(=O)/C=C/CN(C)C [Compound 7-73, (2S,4S)-1-((E)-4-(Dimethylamino)-2-butenoyl)-N-(5-(2-((3-fluorophenyl)amino)-4-(methylamino)pyrimidin-5-yl)-4-pentyn-1-yl)-4-methoxypyrrolidine-2-carboxamide]
 |  |  |  |  | < 10 nM | < 10 nM | < 10 nM | CNc1nc(Nc2ccc(F)cc2)ncc1C#CCCCNC(=O)[C@H](C)N(C)C(=O)/C=C/CN(C)C [Compound 21-51]

IC50 [1, 4] | IC50 [2, 5] | IC50 [3, 6] | IC50 ([1]; MV4-11, 72 hours culture, ATPlite, GI50 per method) | IC50 ([2]; Molm-13, 72 hours culture, ATPlite, GI50 per method) | IC50 [1, 7] | IC50 [2, 8] | IC50 ([3]; FLT3 (WT)) | Structure (SMILES)
< 10 nM | < 10 nM | < 10 nM |  |  |  |  |  | CCCNc1nc(Nc2ccc(C#N)c(C)c2)ncc1C#CCCCNC(=O)[C@H](C)N(C)C(=O)/C=C/CN(C)C [Compound 21-3]
< 10 nM | < 10 nM | < 10 nM |  |  |  |  |  | CCCNc1nc(Nc2ccc(C#N)cc2)ncc1C#CCCCNC(=O)[C@@H]1C[C@@H](F)CN1C(=O)/C=C/CN(C)C [Compound 7-48]
< 10 nM | < 10 nM | < 10 nM |  |  |  |  |  | CCCNc1nc(Nc2ccc(F)c(F)c2)ncc1C#CCCCNC(=O)[C@H](C)N(C)C(=O)/C=C/CN(C)C [Compound 7-41]
10 to 100 nM | 10 to 100 nM | 10 to 100 nM |  |  |  |  |  | CCCNc1nc(Nc2ccc(Cn3cncn3)cc2)ncc1C#CCCCNC(=O)CN(C)C(=O)/C=C/CN(C)C [Compound 12-11]
> 1000 nM | > 1000 nM | < 10 nM |  |  |  |  |  | CCCNc1nc(Nc2ccc(C(N)=O)cc2)ncc1C(=O)Nc1ccc2nc(CNC(=O)/C=C/CN(C)C)[nH]c2c1 [Compound 3-18]
10 to 100 nM | 100 to 1000 nM | < 10 nM |  |  |  |  |  | CCCNc1nc(Nc2ccc(C(N)=O)cc2)ncc1C(=O)Nc1cccc(NC(=O)[C@H](C)N(C)C(=O)/C=C/C(CC)N(C)C)c1 (stereo partly drawn) [Compound 4-15]
100 to 1000 nM | 100 to 1000 nM | 10 to 100 nM |  |  |  |  |  | C=CC(=O)NCC(=O)Nc1cccc(CNC(=O)c2cnc(NCCc3ccncc3)nc2NCCC)c1 [Compound 2-27]
< 10 nM | < 10 nM | < 10 nM |  |  |  |  |  | CCCNc1nc(Nc2cccc(F)c2)ncc1C(=O)Nc1cccc(NC(=O)[C@H](C)N(C)C(=O)/C=C/CN(C)C)c1 [Compound 6-4, (S,E)-N-(3-(2-(4-(dimethylamino)-N-methyl-2-butenamido)propanamido)phenyl)-2-((3-fluorophenyl)amino)-4-(propylamino)pyrimidine-5-carboxamide]
< 10 nM | < 10 nM | < 10 nM |  |  |  |  |  | C[C@@H](C(=O)NCCCC#Cc1cnc(Nc2ccc(C#N)cc2)nc1N1CCCC1)N(C)C(=O)/C=C/CN(C)C [Compound 9-1, (S,E)-N-(1-((5-(2-((4-cyanophenyl)amino)-4-(pyrrolidin-1-yl)pyrimidin-5-yl)-4-pentyn-1-yl)amino)-1-oxopropan-2-yl)-4-(dimethylamino)-N-methyl-2-butenamide]
< 10 nM | < 10 nM | < 10 nM |  |  |  |  |  | COCCCNc1nc(Nc2ccc3cn[nH]c3c2)ncc1C#CCCCNC(=O)[C@H](C)N(C)C(=O)/C=C/CN(C)C [Compound 10-65]
< 10 nM | 10 to 100 nM | < 10 nM |  |  |  |  |  | CCCNc1nc(Nc2ccc(C(N)=O)cc2)ncc1C(=O)Nc1cccc(NC(=O)[C@@H]2CCCN2C(=O)/C=C/CN(C)C)c1 [Compound 3-30]
< 10 nM | < 10 nM | < 10 nM |  |  |  |  |  | CCOc1nc(Nc2cccc(F)c2)ncc1C#C[C@@H]1CCC[C@H](NC(=O)[C@H](C)N(C)C(=O)/C=C/CN(C)C)C1 [Compound 21-19]
< 10 nM | < 10 nM | < 10 nM |  |  |  |  |  | COc1ccc(Nc2nc(Nc3ccc(F)cc3)ncc2C#CCCCNC(=O)CN(C)C(=O)/C=C/CN(C)C)cc1 [Compound 10-19]
< 10 nM | < 10 nM | < 10 nM |  |  |  |  |  | C[C@@H](C(=O)N[C@H]1CCC[C@@H](C#Cc2cnc(Nc3ccnc(F)c3)nc2N2CCOCC2)C1)N(C)C(=O)/C=C/CN(C)C [Compound 14-3]
< 10 nM | 10 to 100 nM | < 10 nM |  |  |  |  |  | CC(C)c1ccc(Nc2nc(Nc3cccc(F)c3)ncc2C#CCCCNC(=O)[C@H](C)N(C)C(=O)/C=C/CN(C)C)cc1 [Compound 10-12]
< 10 nM | < 10 nM | < 10 nM |  |  |  |  |  | CCCN(C)c1nc(Nc2ccc(C(N)=O)cc2)ncc1C#CCCCNC(=O)[C@H](C)N(C)C(=O)/C=C/CN(C)C [Compound 9-6]
100 to 1000 nM | 10 to 100 nM | 10 to 100 nM |  |  |  |  |  | C=CC(=O)N1CCC(NC(=O)c2cnc(NCCc3ccncc3)nc2NCCC)C1 (stereo not drawn) [Compound 6-16]
